Entries after “also recorded” stand apart in the source; their conditions may differ. Read-outs that look alike come from different tables or passages of the source. Ends that are not written are not given here. * marks the point of attachment. X2 = CN(c1ccccc1)c1ccc2c(-c3ccccc3S(=O)(=O)N3CCC(C(=O)NCCCCCN4C(=O)CC(*)C4=O)CC3)c3ccc(=[N+](C)c4ccccc4)cc-3oc2c1; X1 = O=C1OC2(c3cc(F)c(O)cc3Oc3cc(O)c(F)cc32)c2ccc(N3C(=O)CC(*)C3=O)cc21

Eight molecules from patent US10239933B2, “Compositions and methods for modulating thrombin generation” (The Children's Hospital of Philadelphia, priority 2011, dated 2019) can be followed below.

One experiment has as its target T1, FV-810^QQ (Homo sapiens, UniProt P12259, DEL839-1519/R1573Q/R737Q).
T1 construct: amino acids 1-28 are a signal peptide that is cleaved and numbering begins at residue 29; made in house
The experiment is described as follows: Fluorescence anisotropy, binding of OG488-BR to FV-810^QQ. Conditions: after incubation with thrombin. (In general: Polarisation of emitted light reports the rotation of a fluorescent probe.)

For a further experiment, the target named is T2, FV-810^R709Q (Homo sapiens, UniProt P12259, DEL839-1519/R737Q).
T2 construct: amino acids 1-28 are a signal peptide that is cleaved and numbering begins at residue 29; made in house
The experiment is described as follows: Fluorescence anisotropy, binding of OG488-BR to FV-810^R709Q. To be noted: after incubation with thrombin.

The target in the next experiment is T3, FV-810^R1545Q (Homo sapiens, UniProt P12259, DEL839-1519/R1573Q).
T3 construct: amino acids 1-28 are a signal peptide that is cleaved and numbering begins at residue 29; made in house
The experiment is described as follows: Fluorescence anisotropy, binding of OG488-BR to FV-810^R1545Q.

Experiment [1] concerns the target T4, rFVa (Homo sapiens, UniProt P12259).
T4 construct: thrombin rapidly cleaves Factor V at Arg709 to produce heavy chain (HC); rapidly cleaves at Arg1018 and Arg1545 to produce light chain (LC); made in house
T4 sequence (P12259 29-737 limits assumed): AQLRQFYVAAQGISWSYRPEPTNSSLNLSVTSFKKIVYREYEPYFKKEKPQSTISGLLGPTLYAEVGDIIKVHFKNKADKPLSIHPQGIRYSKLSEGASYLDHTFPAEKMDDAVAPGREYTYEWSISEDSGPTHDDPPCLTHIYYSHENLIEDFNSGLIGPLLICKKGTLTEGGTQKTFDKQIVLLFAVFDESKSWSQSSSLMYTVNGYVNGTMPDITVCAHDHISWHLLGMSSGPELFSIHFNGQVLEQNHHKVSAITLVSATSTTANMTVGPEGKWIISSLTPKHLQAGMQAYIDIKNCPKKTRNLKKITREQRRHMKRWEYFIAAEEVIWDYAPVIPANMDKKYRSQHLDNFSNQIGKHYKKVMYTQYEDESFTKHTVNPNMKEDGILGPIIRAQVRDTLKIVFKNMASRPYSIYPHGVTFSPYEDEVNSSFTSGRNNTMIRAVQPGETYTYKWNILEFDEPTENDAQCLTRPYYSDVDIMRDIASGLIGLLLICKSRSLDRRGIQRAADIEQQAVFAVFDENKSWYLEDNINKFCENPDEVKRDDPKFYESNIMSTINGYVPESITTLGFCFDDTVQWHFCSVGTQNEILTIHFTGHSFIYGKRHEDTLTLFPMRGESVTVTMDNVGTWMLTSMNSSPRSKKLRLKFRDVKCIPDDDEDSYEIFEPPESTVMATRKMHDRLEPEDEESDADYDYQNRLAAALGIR
T4 sequence (P12259 1574-2224 limits assumed): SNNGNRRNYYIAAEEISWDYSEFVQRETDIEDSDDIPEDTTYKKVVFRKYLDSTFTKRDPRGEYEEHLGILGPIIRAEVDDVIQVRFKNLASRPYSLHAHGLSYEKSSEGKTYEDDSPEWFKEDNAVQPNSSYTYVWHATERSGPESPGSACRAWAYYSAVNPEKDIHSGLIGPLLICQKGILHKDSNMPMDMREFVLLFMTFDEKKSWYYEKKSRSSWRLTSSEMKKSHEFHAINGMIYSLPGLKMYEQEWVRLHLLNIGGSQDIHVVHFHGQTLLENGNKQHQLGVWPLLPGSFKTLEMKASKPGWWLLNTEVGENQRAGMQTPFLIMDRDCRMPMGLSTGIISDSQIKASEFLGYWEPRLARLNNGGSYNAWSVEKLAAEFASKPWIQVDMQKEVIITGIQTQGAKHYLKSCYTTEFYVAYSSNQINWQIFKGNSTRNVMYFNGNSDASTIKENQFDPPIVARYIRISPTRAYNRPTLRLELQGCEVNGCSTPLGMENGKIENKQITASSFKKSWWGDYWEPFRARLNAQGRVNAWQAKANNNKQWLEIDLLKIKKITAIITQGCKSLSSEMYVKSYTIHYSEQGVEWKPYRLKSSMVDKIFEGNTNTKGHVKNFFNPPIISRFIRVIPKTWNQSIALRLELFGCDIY
In words: Fluorescence anisotropy, direct binding of OG488-BR to rFVa. To be noted: fluorescently labeled BR peptide, rFVa titrated.

Experiment [2] concerns the target T5, FV-810 (Homo sapiens, UniProt P12259, DEL839-1519).
T5 construct: amino acids 1-28 are a signal peptide that is cleaved and numbering begins at residue 29; made in house
The experiment is described as follows: Fluorescence anisotropy, direct binding of OG488-BR to FV-810.

Experiment [3] deals with T5, FV-810. In words: Clotting assay, FV-deficient plasma supplemented with FV-810 (FV-DT). In kind it is biochemical. To be noted: FV-deficient plasma; FIG. 8A: 0.25 nM FV-810, peptides at 5 μM. The procedure: (§1) Residual clotting activity of Factor V variants was determined by prothrombin time-based clotting assays. Factor V variants were incubated with either the FVBR or s46 peptide, after which the mixtures were mixed with Factor V deficient plasma and clotting times were measured. Where indicated, the Factor V variants were activated by pre-incubation with thrombin prior to addition of the peptides.
(§2) FV derivatives (500 nM) were prepared in assay buffer. Where noted, FV derivatives were pretreated with 10 nM thrombin for 15 minutes at 37° C., followed by the addition of 15 nM hirudin. Samples were diluted to 0.25 nM in assay buffer with 0.1% BSA, and the specific clotting activity was measured in FV-deficient plasma (George King Bio-Medical, Overland Park, Kans.) with TriniCLOT PT Excel (Tcoag, Wicklow, Ireland) as described (Camire et al. (1998) Biochemistry 37:11896-11906). The data are presented as the means±S.D.

For experiment [4], the target named is T6, FVDT (Homo sapiens, UniProt P12259, DEL839-1519).
T6 construct: amino acids 1-28 are a signal peptide that is cleaved and numbering begins at residue 29; made in house
In words: Inhibition of FVDT by the FVBR or TFPI peptide (FIG. 7B). In kind it is biochemical.

In experiment [5] the target is T6, FVDT. In words: Direct binding of TFPI to FVDT (FIG. 7C).
For experiment [6], the target named is T5, FV-810. In words: Analytical ultracentrifugation (sedimentation velocity) of QSY7-BR with FV-810. The format is binding. The procedure: Analytical ultracentrifugation of QSY7 C5-maleimide-modified BR (QSY7-BR) was performed in a Beckman Optima XL-I analytical ultracentrifuge using absorbance optics. Sedimentation velocity was measured at 25,000 or 45,000 rpm with two-sector cells in an An-60 Ti rotor at 20° C. Sedimentation of QSY7-BR was followed measuring absorbance at 560 nm in cells containing 5 μM QSY7-BR alone or with 7 μM FV-810 or rFVa in 20 mM HEPES, 150 mM NaCl, and 2 mM CaCl2, pH 7.4. Sedimentation coefficients and molecular weights were determined by g(s*) analysis performed using DCDT+ (Philo, J. S. (2000) Anal. Biochem., 279:151-163).

The target in another experiment is T7, FXa/FV-DT (Homo sapiens, UniProt P12259, DEL839-1519).
T7 construct: amino acids 1-28 are a signal peptide that is cleaved and numbering begins at residue 29; made in house
The experiment is described as follows: Prothrombin activation assay, prothrombinase containing FV-810 (FV-DT). The format is biochemical. To be noted: peptide titrated; 1.4 μM prothrombin, 50 μM PCPS, 25° C. As to the method: Steady-state initial velocities of prothrombin cleavage were determined discontinuously at 25° C. by measuring the initial rate of thrombin formation. Reaction mixtures contained liposomes (75:25, PC:PS), prothrombin, the indicated Factor V variants, and the Factor V peptides FVBR or s46. The reactions were initiated by adding Factor Xa, and thrombin generation was determined at multiple time points by monitoring the cleavage of the chromogenic thrombin substrate S-2238.
Steady-state initial velocities of prothrombin cleavage were determined discontinuously at 25° C. as described (Camire, R. M. (2002) J. Biol. Chem., 277:37863-37870). Reaction mixtures containing PCPS (50 μM), DAPA (3 μM), prothrombin (1.4 μM), and either rFVa or the indicated FV-810 derivatives were incubated with B-domain peptides (0-10 μM) in assay buffer. […] Prothrombin activation was determined using the chromogenic thrombin substrate 52238 as described (Camire, R. M. (2002) J. Biol. Chem., 277:37863-37870).

For experiment [7], the target named is T5, FV-810. The experiment is described as follows: Displacement of OG488-BR from preformed OG488-BR/FV-810 complex (fluorescence anisotropy). The format is binding.
Experiment [8] has as its target T4, rFVa. The experiment is described as follows: Clotting assay, FV-deficient plasma supplemented with rFVa. The format is biochemical. Conditions: FIG. 8B: 0.25 nM rFVa, peptides at 5 μM. As to the method: as §1, §2

T5 sequence (P12259 with tags, fused parts or gaps DEL839-1519): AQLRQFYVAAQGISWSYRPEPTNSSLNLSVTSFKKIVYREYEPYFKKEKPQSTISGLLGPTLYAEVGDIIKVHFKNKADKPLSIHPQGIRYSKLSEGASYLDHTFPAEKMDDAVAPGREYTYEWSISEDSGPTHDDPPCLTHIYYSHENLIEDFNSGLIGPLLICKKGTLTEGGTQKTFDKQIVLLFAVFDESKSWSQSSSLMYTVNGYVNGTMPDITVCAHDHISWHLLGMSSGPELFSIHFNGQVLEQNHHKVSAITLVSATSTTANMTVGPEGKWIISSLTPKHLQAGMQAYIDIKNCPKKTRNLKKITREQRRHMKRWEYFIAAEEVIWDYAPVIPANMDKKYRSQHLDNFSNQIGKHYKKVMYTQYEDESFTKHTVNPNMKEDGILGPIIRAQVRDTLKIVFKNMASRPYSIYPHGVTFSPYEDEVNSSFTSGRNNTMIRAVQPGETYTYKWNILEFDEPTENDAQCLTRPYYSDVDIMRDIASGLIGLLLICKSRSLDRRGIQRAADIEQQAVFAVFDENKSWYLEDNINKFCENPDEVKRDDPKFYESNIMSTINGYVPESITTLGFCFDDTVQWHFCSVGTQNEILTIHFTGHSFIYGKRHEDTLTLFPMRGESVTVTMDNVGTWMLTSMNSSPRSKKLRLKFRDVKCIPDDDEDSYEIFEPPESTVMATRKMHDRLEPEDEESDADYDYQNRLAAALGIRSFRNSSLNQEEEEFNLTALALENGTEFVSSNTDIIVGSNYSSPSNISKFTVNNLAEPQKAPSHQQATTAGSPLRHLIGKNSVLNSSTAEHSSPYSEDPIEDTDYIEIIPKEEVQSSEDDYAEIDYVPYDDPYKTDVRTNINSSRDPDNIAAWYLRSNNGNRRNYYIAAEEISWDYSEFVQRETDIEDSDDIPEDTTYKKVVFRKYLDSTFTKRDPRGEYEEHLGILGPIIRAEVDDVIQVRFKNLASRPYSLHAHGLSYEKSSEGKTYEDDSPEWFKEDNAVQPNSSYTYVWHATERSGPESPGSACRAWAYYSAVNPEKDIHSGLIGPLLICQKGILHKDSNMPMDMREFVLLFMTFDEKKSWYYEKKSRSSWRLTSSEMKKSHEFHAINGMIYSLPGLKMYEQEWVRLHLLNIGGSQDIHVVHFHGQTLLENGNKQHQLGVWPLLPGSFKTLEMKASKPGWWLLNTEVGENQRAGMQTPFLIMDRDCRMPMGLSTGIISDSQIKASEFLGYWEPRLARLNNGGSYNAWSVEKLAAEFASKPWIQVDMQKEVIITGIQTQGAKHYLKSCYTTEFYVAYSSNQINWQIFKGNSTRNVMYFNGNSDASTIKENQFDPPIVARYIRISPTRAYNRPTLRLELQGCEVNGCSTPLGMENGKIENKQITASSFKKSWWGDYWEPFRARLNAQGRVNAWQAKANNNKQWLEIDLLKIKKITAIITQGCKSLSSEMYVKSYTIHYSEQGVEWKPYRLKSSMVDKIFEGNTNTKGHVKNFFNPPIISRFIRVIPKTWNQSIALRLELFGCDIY
T6 sequence (P12259 with tags, fused parts or gaps DEL839-1519): as above
T3 sequence (P12259 with tags, fused parts or gaps DEL839-1519/R1573Q): as the sequence (P12259 with tags, fused parts or gaps DEL839-1519) above, with R864Q counted along it
T2 sequence (P12259 with tags, fused parts or gaps R737Q/DEL839-1519): as the sequence (P12259 with tags, fused parts or gaps DEL839-1519) above, with R709Q counted along it
T1 sequence (P12259 with tags, fused parts or gaps R737Q/DEL839-1519/R1573Q): as the sequence (P12259 with tags, fused parts or gaps DEL839-1519) above, with R709Q, R864Q counted along it
T7 sequence (P12259 with tags, fused parts or gaps DEL839-1519): as the sequence (P12259 with tags, fused parts or gaps DEL839-1519) above

A word on the Kd: it is the constant that tells how readily two partners part at equilibrium. With “H-C(X1)SRAWGESTPLANKPGKQSGHPKFPRVRHKSLQVRQDGGKSRLKKSQFLIKTRKKKKEK-OH [OG488-BR]”, at FV-810^QQ, the “Kd, OG488-BR binding to thrombin-treated FV-810^QQ” value is “still bound”. In addition, the “binding of OG488-BR to thrombin-cleaved FV-810^R709Q” value at FV-810^R709Q is “did not; also recorded: neither FV-810 nor FV-810^R709Q had detectable binding”. The Kd on FV-810^R1545Q (after incubation with thrombin, read-out: Kd, OG488-BR binding to thrombin-cleaved FV-810^R1545Q) was found to be 30 nM; on FV-810^R1545Q (pretreated with buffer, assuming n=1, read-out: Kd, OG488-BR binding to FV-810^R1545Q) it was 2 nM; at FV-810 [2] (FV-810 pretreated with buffer, 30 nM OG488-BR, 50 μM PCPS, assuming n=1), 2.1 ± 0.3 nM; at FV-810 [2] (FV-810 titrated into 20 or 40 nM OG488-BR, 50 μM PCPS, 25° C.) it was 2.07 ± 0.2 nM. On rFVa [1], the “binding to rFVa/FVa” value is on record as “no detectable binding”. The “binding of OG488-BR to FV-810 with EDTA” value at FV-810 [2] (10 mM EDTA added to the buffer) is “no binding was observed”. Further, on FV-810 [2] (20 or 40 nM OG488-BR, 50 μM PCPS, 25° C.), the “stoichiometry n at saturation” value was 1.27±0.02 mol of FV-810/mol of OG488-BR. For the same molecule, the “binding of OG488-BR to thrombin-cleaved FV-810” value at FV-810 [2] (after incubation with thrombin) is given as “did not; also recorded: neither FV-810 nor FV-810^R709Q had detectable binding”.
With “platelet factor 4: cationic platelet factor 4 [reference compound]”, the “inhibition of clotting activity of FV-810 (FV-DT)” value with FV-810 [3] was “neither low molecular weight poly-L-lysine (average Mr=1000-5000) (FIG. 8A) nor the cationic platelet factor 4 affected FV-810 activity”.
The same measure, in the same setting: with poly-L-lysine [reference compound] the entry was “neither low molecular weight poly-L-lysine (average Mr=1000-5000) (FIG. 8A) nor the cationic platelet factor 4 affected FV-810 activity”; with “acetylated BR peptide: BR peptide acetylated at all Lys residues and the N terminus (Ac-SRAWGESTPLANK(Ac)PGK(Ac)QSGHPK(Ac)FPRVRHK(Ac)SLQVRQDGGK(Ac)SRLK(Ac)K(Ac)SQFLIK(Ac)TRK(Ac)K(Ac)K(Ac)K(Ac)EK(Ac))”, “no longer inhibited”.
Consider “TFPI peptide: C-terminal tail peptide of tissue factor pathway inhibitor (amino acids 240-265, SEQ ID NO: 4) (KKGFIQRISKGGLIKTKRKRKKQRVK; peptide from human tissue factor pathway inhibitor)”, for which the “inhibition of FVDT” value with FVDT [4] is given as “inhibited FVBT in a manner similar to FVBR”. In addition, in the experiment with FVDT [5], the “direct binding to FVDT” value is reported as “directly bound”.
As to “H-C(X2)SRAWGESTPLANKPGKQSGHPKFPRVRHKSLQVRQDGGKSRLKKSQFLIKTRKKKKEK-OH [QSY7-BR]”, the sedimentation coefficient (s^020,w) on FV-810 [6] (5 μM QSY7-BR alone, absence of FV-810) was 0.98 S (Svedberg). Besides, at FV-810 [6] (5 μM QSY7-BR in the presence of 7 μM FV-810), the sedimentation coefficient is 9.8 S (Svedberg).
Take “bovine BR: Bos taurus FV basic region Ser938-Lys996 (SRTWGENIPFKNSHGKQSGHPTFLVTRRKPLQDRQDRRNSRLKEGLPLIRTRRKKKEEK)”: the “inhibition of prothrombin activation with FV-810 (FV-DT)” value with FXa/FV-DT is reported as “inhibited”. For the same molecule, in the experiment with FV-810 [7] (30 nM OG488-BR, 20 nM FV-810, 50 μM PCPS, 25° C., assuming stoichiometry of 1 mol of FV-810/mol of BR peptide), binding was put at a Kd of 28.3 ± 0.6 nM. Also, the “weaker binding to FV-810 than the human BR” value with FV-810 [7] (displacement binding experiments) was around 10 fold. In the experiment with FV-810 [3], the “inhibition of clotting activity of FV-810 (FV-DT)” value is reported as “inhibited”.

B1: BR+AR peptide: FV residues 968-1007 and 1492-1538, juxtaposed BR and AR sequences from FV-B104 (peptide)
peptide: SGHPKFPRVRHKSLQVRQDGGKSRLKKSQFLIKTRKKKKETDYIEIIPKEEVQSSEDDYAEIDYVPYDDPYKTDVRTNINSSRDPDN
Take B1: in the experiment with rFVa [8], the “inhibition of clotting activity of rFVa/FVa” value is listed as “not inhibited”.
